According to PMC5248581 (PeerJ, 2017):
Entries after “also recorded” stand apart in the source; their conditions may differ. Like-named read-outs stand apart in the source and are kept apart here. Residues, ends and D or L forms follow the SMILES beside them.

How the values were obtained:
[1] = biological target: T1, human isolated umbilical vein (BK B2R; histamine H1R) (Homo sapiens, UniProt P30411)
T1 sequence (P30411 1-391): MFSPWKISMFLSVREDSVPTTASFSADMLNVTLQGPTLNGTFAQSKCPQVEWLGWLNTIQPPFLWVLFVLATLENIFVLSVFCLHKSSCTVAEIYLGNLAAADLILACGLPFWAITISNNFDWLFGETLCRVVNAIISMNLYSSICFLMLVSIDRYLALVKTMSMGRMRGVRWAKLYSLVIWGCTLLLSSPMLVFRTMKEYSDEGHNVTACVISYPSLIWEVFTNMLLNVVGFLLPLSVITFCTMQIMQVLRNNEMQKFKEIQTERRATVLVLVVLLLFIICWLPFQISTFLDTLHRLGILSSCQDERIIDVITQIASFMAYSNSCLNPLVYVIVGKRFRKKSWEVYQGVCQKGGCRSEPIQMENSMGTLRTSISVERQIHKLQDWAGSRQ
Text: The institutional research ethics board (CHU de Québec) approved the anonymous use of human umbilical cord segments obtained after elective cesarean section deliveries (file number: 2012-323). Informed written consent was obtained from mothers.
(§1) Results are presented as means ± s.e.m. Radioligand binding data were fitted by nonlinear regression to a one-site competition equation using a least-square method (Prism 5.0; GraphPad Software Inc., San Diego, CA, USA) and IC50 values calculated from this procedure. The same computer program was used to draw concentration-effect curves (least square fitting of sigmoidal dose–response equation with variable slope) and to derive contractile EC50 values. Data describing baseline values of heart rate and mean arterial blood pressure and hypotensive responses to peptides in anesthetized rats were assessed by using one-way analysis of variance (ANOVA) followed by the Dunnett’s test (repeated comparison with a common control). The effects of drugs on the hypotensive responses to each dose of MK were assessed by using ANOVA followed by the Dunnett’s test.

[2] = LC-MS of MK incubated with human umbilical vein ring; format: in vitro ADME; settings: 37 °C; for fragment generated from MK: MK 1 µM in Krebs with umbilical vein ring, 5 or 15 min, LC-MS, duplicate; for increase of fragment ion intensity on reaction with tissue: vs. contaminant in commercial MK, MK 1 µM
Experimental: Synthetic MK (1 µM) was submitted to digestion in 2 ml of sterile-filtered Krebs solution in the presence of a freshly prepared ring of human umbilical vein (wet weight 25–37 mg). The tubes containing these materials were incubated at 37 °C for 5 or 15 min; the tissues were then removed and five volumes of cold ethanol (10 ml) were added to each tube. The tubes were incubated for 1 h on ice, centrifuged at 10,000 g to remove precipitated proteins and the kinin-containing supernatants were collected (procedure previously validated, [Raymond et al., 1995]). The supernatants were then completely evaporated to dryness in a Speedvac system and reconstituted in a small volume of water. Peptides were desalted on stage tip (C18), vacuum dried and then resuspended into 0.1% formic acid. One hundred fmol of each sample (starting MK quantity) was analyzed by mass spectrometry.
Mass spectrometry: peptide samples were separated by online reversed-phase (RP) nanoscale capillary liquid chromatography (nanoLC) and analyzed by electrospray mass spectrometry (ES MS/MS). The experiments were performed with a Ekspert NanoLC425 (Eksigent) coupled to a 5600+ mass spectrometer (AB Sciex, Framingham, MA, USA) equipped with a nanoelectrospray ion source. Peptide separation took place on a picofrit column (Reprosil 3u, 120A C18, 15 cm × 0.075 mm internal diameter). Peptides were eluted with a linear gradient from 5–35% solvent B (acetonitrile, 0.1% formic acid) in 35 min, at 300 nL/min. Mass spectra were acquired using a data dependent acquisition mode using Analyst software version 1.7. […] Dynamic exclusion was set for a period of 3 s and a tolerance of 100 ppm
Database searching: MGF peak list files were created using Protein Pilot version 5.0 software (Sciex) utilizing the Paragon and Progroup algorithms. MGF sample files were then analyzed using Mascot (Matrix Science, London, UK; version 2.5.1).
Mascot was set up to search the MK sequence assuming that the digestion enzyme was non-specific. Mascot was searched with a fragment ion mass tolerance of 0.100 Da and a parent ion tolerance of 0.100 Da. Deamidation of asparagine and glutamine and oxidation of methionine were specified in Mascot as variable modifications. Scaffold (version Scaffold_4.7.1; Proteome Software Inc., Portland, OR, USA) was used to validate MS/MS based peptide and protein identifications.
Data processing: Peak View 1.2.0.1 (Sciex) was used to extract the specific precursor masses and calculate the area under the curve. Extracted ion chromatoram (XIC) were generated from the TOF MS using a peak width of 0.05.

[3] = tested on: male Sprague-Dawley rats; settings: for Basal mean arterial blood pressure after pre-treatment / Basal heart rate after pre-treatment: 15 min after i.v., enalaprilat 0.1 mg/kg n=6, icatibant 25 µg/kg n=6, pyrilamine 5 mg/kg n=16, means ± s.e.m.; for Basal mean arterial blood pressure after pre-treatment: control 96.5 ± 2.5; for Basal heart rate after pre-treatment: control 351 ± 10, * P < 0.01 vs control; for effect of pretreatment on hypotensive effect of MK: enalaprilat 0.1 mg/kg, icatibant 25 µg/kg, 15 min before MK
Experimental: All surgical and experimental procedures were reviewed and approved by the Animal Care and Handling Committee of Laval University, in accordance with the Canadian Council on Animal Care (file no. 2012-223). Experiments were performed on male Sprague-Dawley rats (300–375 g) purchased from Charles River Laboratories (St-Constant, Qc, Canada). Only animals of the male gender have been studied to be consistent with related and recently published data ([Jean et al., 2016a]). The rats were housed in a temperature-controlled room (22 ± 1 °C) on a 12 h/12 h light-dark cycle (lights on at 0600) and had free access to normal chow diet and tap water. They were allowed to acclimate to their environmental conditions for one week prior to being studied. At the end of the acclimation period, the rats were anesthetised with sodium pentobarbital (50 mg kg^−1, i.p., supplemented as required) and had one catheter implanted into the right jugular vein (for intravenous ( i.v.) injection) and one into the left femoral artery (for direct and continuous measurement of blood pressure and heart rate as previously described, [Jean et al., 2016a]). In some experiments, a miniaturized pulsed Doppler flow probe ([Haywood et al., 1981]) was implanted around the distal abdominal aorta (below the level of the ileocaecal artery) through a midline abdominal incision to monitor changes in hindquarter hemodynamic, according to the method previously developed by [Gardiner & Bennett (1988)] and as previously described ([Bachelard et al., 1992]; [Jean et al., 2016a]). Experiments started at least 30 min following the end of surgery in anesthetised rats.
Baseline heart rate and phasic and mean arterial blood pressure were recorded over a period of 15 min in anesthetized rats. […] Peptides were dissolved in isotonic saline (0.9% NaCl) containing 0.1% BSA to prevent the adsorption of peptide to the glassware and plastic surfaces. All i.v. injections were given as 100 µl boluses which were washed in with a further 100 µl of saline (the dead space of the catheter). Only one peptide was tested per group of rats and each injection started with saline-BSA 0.1% followed by the lowest dose of peptide. The next dose was administered once all recorded cardiovascular parameters had returned to baseline after the previous injection (usually 2–10 min). At the end of the experiments each animal was euthanized with an overdose of sodium pentobarbital (240 mg/kg, i.v.).
In these experiments, enalaprilat was intravenously administered as bolus (0.1 mg/kg, 0.1 ml) following a 10 min period of baseline measurements of heart rate and blood pressure. Fifteen minutes later, a dose–response curve to MK was obtained, as described above. […] In these experiments, icatibant was intravenously administered as bolus (25 µg/kg, 0.1 ml) 15 min before the i.v. injection of increasing doses of MK, as above. […] In these experiments, pyrilamine was intravenously administered as bolus (5 mg/kg, 0.1 ml) 15 min before the i.v. injection of increasing doses of MK, as above.
as §1, with “control).” for “control). The effects of drugs on the hypotensive responses to each dose of MK were assessed by using ANOVA followed by the Dunnett’s test.”

## CC(C)C[C@H](NC(=O)[C@H]1O[C@@H]1C(=O)O)C(=O)NCCCCN=C(N)N [E-64]
[1]; inhibitor 30 min before MK
  effect of protease/peptidase inhibitor on contractile potency of MK: failed to change the concentration-effect curve of MK

## O=C([O-])CN(CCN(CC(=O)[O-])CC(=O)[O-])CC(=O)[O-].[Ca+2].[Na+].[Na+] [EDTA calcium disodium]
[1]
  effect of protease/peptidase inhibitor on contractile potency of MK: The same applied

## N=C(N)NCCC[C@H](NC(=O)[C@H](Cc1ccccc1)NC(=O)[C@@H]1CCCN1C(=O)[C@H](CO)NC(=O)[C@H](Cc1ccccc1)NC(=O)CNC(=O)[C@@H]1CCCN1C(=O)[C@@H]1CCCN1C(=O)[C@H](CCCNC(=N)N)NC(=O)[C@@H]1CCCN1C(=O)CN)C(=O)O [Gly-Pro-BK] (H-GPRPPGFSPFR-OH)
[2]
  fragment generated from MK: evidenced in a time-dependent manner; also recorded: metabolite that accumulates
  increase of fragment ion intensity on reaction with tissue: 3-4 -fold

## N=C(N)NCCC[C@H](NC(=O)[C@H](Cc1ccccc1)NC(=O)[C@@H]1CCCN1C(=O)[C@H](CO)NC(=O)[C@H](Cc1ccccc1)NC(=O)CNC(=O)[C@@H]1CCCN1C(=O)[C@@H]1CCCN1C(=O)[C@H](CCCNC(=N)N)NC(=O)[C@@H]1CCCN1C(=O)CNC(=O)[C@@H](N)CCCCN)C(=O)O [Lys-Gly-Pro-BK] (H-KGPRPPGFSPFR-OH)
[2]
  fragment generated from MK: evidenced in a time-dependent manner; also recorded: major C-terminal metabolite
  increase of fragment ion intensity on reaction with tissue: 3-4 -fold

## C[C@H](N[C@@H](CCc1ccccc1)C(=O)O)C(=O)N1CCC[C@H]1C(=O)O [enalaprilat]
[3]
  Basal mean arterial blood pressure after pre-treatment: 94.9 ± 4.6
  Basal heart rate after pre-treatment: slight but significant increase in basal HR
[3]; listed as Enalaprilat
  Basal heart rate after pre-treatment: 417 ± 13^*
[3]; pyrilamine 5 mg/kg i.v.
  effect of pretreatment on hypotensive effect of MK: not significantly potentiated

## CC(=O)N[C@@H](CC(C)C)C(=O)N[C@@H](CC(C)C)C(=O)N[C@H](C=O)CCCNC(=N)N [leupeptin]
[1]; inhibitor 30 min before MK
  effect of protease/peptidase inhibitor on contractile potency of MK: The same applied

## O=C(N[C@H]1CCS[C@H]2CCC[C@@H](C(=O)O)N2C1=O)[C@@H](S)Cc1ccccc1 [omapatrilat]
[1]; inhibitor 30 min before MK
  effect of protease/peptidase inhibitor on contractile potency of MK: failed to modify the contractile effect of MK

## Cl.NCCc1ccc(S(=O)(=O)F)cc1 [pefabloc SC]
[1]; inhibitor 30 min before MK
  effect of protease/peptidase inhibitor on contractile potency of MK: failed to change the concentration-effect curve of MK

## COc1ccc(CN(CCN(C)C)c2ccccn2)cc1 [pyrilamine]
[1]; antagonist 1 µM, 30 min before MK
  effect of receptor antagonist on MK-induced contraction: did not reduce the venous effect of MK
[1]; antagonist 1 µM, 30 min before histamine
  effect of antagonist on histamine-induced contraction: profoundly and competitively inhibiting
[3]
  Basal mean arterial blood pressure after pre-treatment: 87.4 ± 2.7
  Basal heart rate after pre-treatment: 335 ± 6.1
[3]; pyrilamine 5 mg/kg i.v.
  effect of pretreatment on hypotensive effect of MK: did not antagonize the effects of MK
[3]; pyrilamine 5 mg/kg i.v., histamine 6.4 µg/kg i.v.
  effect of pretreatment on hypotensive effect of histamine: abated the hypotensive effect of histamine

## DLPKINRKGPRPP [N-terminal fragment of MK]
[2]
  fragment generated from MK: Abundant

## DLPKINRKGPRPPGF [N-terminal fragment of MK]
[2]
  fragment generated from MK: Abundant
